Bridges are numbered along the chain shown (N, C = ends). Where no end group is shown, it is not given here.
Key:
[1] = test system: Fusarium oxysporum f. sp. vasinfectum; details: read-out: IC50, growth of Fusarium oxysporum f. sp. vasinfectum
Experimental: Permeabilization of fungal membranes has also been reported for some plant defensins (Lay and Anderson, 2005). […] These five fungal species are all members of the ascomycete phylum and are distributed among three classes in the subphylum pezizomycotiria. These fungi are agronomically important fungal pathogens.
SP Sepharose elution fractions containing rNaD1 were loaded onto an analytical C8 RP-HPLC column and eluted using a 40 min linear gradient (0-100% buffer B). Proteins were detected by absorbance at 215 nm. […] Graph represents data from three separate experiments performed in quadruplicate. Error bars represent standard error of the mean.

[2] = test system: human coronary artery smooth muscle cells (CASMC) and umbilical vein endothelial cells (HUVEC); details: read-out: IC50, viability of normal primary cells (MTT), 48 h
Experimental: Tumour cells were seeded in a 96-well microtitre plate (50 μL/well) at an optimum density determined in the cell optimisation assay as above. Background control wells (n=8) containing the same volume of complete culture medium were included in the assay. The microtitre plate was incubated overnight at 37° C., prior to the addition of proteins at various concentrations and the plate was incubated for a further 48 h. The cell viability 3-(4,5-dimethyl-2-thiazolyl)-2,5-diphenyl-2H-tetrazolium bromide (MTT, Sigma-Aldrich) assay was carried out as follows: the MTT solution (1 mg/mL) was added to each well (100 μL) and the plate incubated for 2-3 h at 37° C. under a humidified atmosphere containing 5% CO2/95% air. Subsequently, for adherent cell lines, the media was removed and replaced with dimethyl sulfoxide (100 μL, DMSO, Sigma-Aldrich), and placed on a shaker for 5 min to dissolve the tetrazolium salts. In the case of suspension cells, prior to the addition of DMSO the cells are spun at 1500 rpm for 5 min. Absorbance of each well was measured at 570 nm and the IC50 values (the protein concentration to inhibit 50% of cell growth) were determined using the Origin Software Program. […]

[3] = test system: human red blood cells; assay: Red blood cell (RBC) lysis; details: for haemolytic activity: concentrations up to 100 μM
Experimental: Following ficoll-paque separation, RBCs were collected and washed with 1×PBS and pelleted at 1000×g for 10 min. RBCs were diluted 1 in 10 for treatment with increasing concentrations (0-100 μM) of defensins and incubated over-night under a humidified atmosphere of 5% CO2/95% air. […] The degree of red blood cell lysis was measured as absorbance at 412 nm.

[4] = Lipid-coated membrane strip binding assay (Echelon lipid strips); details: 0.12 μM, overnight, 4° C.
Experimental: Membrane Lipid Strips™, PIP Strips™ and Sphingo Strips™ (Echelon Biosciences, Salt Lake City, Utah) were incubated with PBS/3% BSA for 1-2 h at RT to block non-specific binding. The membrane strips were then incubated with defensins (0.12 μM) diluted in PBS/1% BSA overnight at 4° C., prior to thorough washing for 60 min at RT with PBS/0.1% Tween-20. […] After each antibody incubation, the membrane strips were washed extensively for 60 min at RT with PBS/0.1% Tween-20. Chemiluminescence was detected using the enhanced chemiluminescence (ECL) western blotting reagent (GE Healthcare BioSciences, NSW Australia) and exposed to Hyperfilm (GE Healthcare BioSciences, NSW, Australia) and developed using an Xomat (All-Pro-Imaging).
Densitometry analysis was performed on images obtained from lipid strips using ImageJ (National Institute of Health, Bethesda, Md.). Briefly, circles of equivalent size were traced around areas of interest. A background circle of equal size was also placed in the area on the membrane where there is no lipid and set as the background. The areas of interest were quantified as the average pixel intensity subtracted from the background.
These strips are spotted with 100 pmole of each lipid in a biologically active form.
Further investigation of the interaction of Solanaceae class I and class II defensins with cellular lipids was carried out by solid-state lipid binding assays using Echelon™ PIP Strips. […] Defensin binding was quantitated by densitometry on the developed lipid strips.

[5] = test system: U937 human myelomonocytic cells; assay: ATP bioluminescence (ATP release) assay, U937; type: cell-based; details: read over 30 min
Experimental: ATP bioluminescence assay (Roche Diagnostics, NSW Australia) was used to quantitate the release of ATP by permeabilised tumour cells. The Luciferase reagent was dissolved as per manufacturer's instructions and incubated for 5 min at 4° C. Briefly, cells were re-suspended at a concentration of 1×10^6 cells/mL in 1×PBS/0.1% BSA and added (40 μL/well) to the Luciferase reagent (50 μL/well) to a blank microtitre plate (Nunc™) containing 10 μL of protein samples. Simultaneously, using a multichannel pipette, the mixture was added (90 μL/well) and samples were immediately read on a microtitre plate reader at 562 nm for 30 min with readings taken at 30 s intervals. The data were analysed by SoftMaxPro 4.0 software (Molecular Devices Company).
(§1) To determine whether NaD1 kills tumour cells in a similar manner to fungus, the ability of NaD1 to permeabilise tumour cells was assessed using two different approaches. The first used a bioluminescence assay to measure the release of intracellular ATP.
(§2) The first used a bioluminescence assay to measure the release of intracellular ATP. 4×10^4 U937 (human myelomonocytic tumour cell line) were treated with increasing concentrations of PhD1A or rTPP3 (0-20-μM) and ATP release measured at intervals of 30 seconds for a total of 30 min by determining absorbance at 562 nm. The second approach used flow cytometry to determine the uptake of the fluorescent dye propidium iodide (PI) (2 μg/mL) by U937 (4×10^5/mL) following the treatment of cells with increasing concentrations of PhD1A (0 to 50 μM) or rTPP3 (0 to 40 μM) for 30 min.
(§3) The first used a bioluminescence assay to measure the release of intracellular ATP. 4×10^4U937 were treated with 10 μM of each defensin and ATP release measured at intervals of 30 seconds for a total of 30 min by determining absorbance at 562 nm. The second approach used flow cytometry to determine the uptake of the fluorescent dye propidium iodide (PI) (2 μg/mL) by U937 (4×10^5/mL) following the treatment of cells with […] of each defensin for 30 min.

[6] = test system: human U937 myelomonocytic cells; assay: PI uptake flow cytometry cell permeabilisation assay, U937; type: cell-based; details: for PI+ U937 cells (mean ± SEM): 10 μM, absence of serum, Example 9, cell only control 27.03±0.52
Experimental: (§4) Unless otherwise stated, cells were re-suspended at a cell concentration of 4×10^5 cells/mL in complete culture RPMI-1640 medium supplemented with 10% FBS, 100 U/mL penicillin and 100 μg/mL streptomycin, and added to either a V-bottom 96-well plate or microfuge tubes. Cells were kept at 37° C., unless otherwise stated, during protein addition (5 μL) at various concentrations or the set concentration of 10 μM. Typically, cells were mixed with the protein of interest and incubated at 37° C. for 30 min. In certain experiments, cells were also incubated at either 4° C. or 37° C. for 2-60 min prior to flow cytometry analysis. Cells were added to an equal volume of complete culture medium containing 2 μg/mL propidium iodide (PI, Annexin V-FITC Apoptosis Detection Kit, Invitrogen) and analysed immediately by flow cytometry using a FACSCanto cell sorter (Becton Dickson, Fanklin Lakes, N.J.) and Cell Quest Pro Software (Becton Dickson). Typically, 5000-10000 events per sample were collected and the resultant data were analysed using FlowJo software (Tree Star, Ashland, Oreg.). Cells were gated appropriately based on forward scatter (FSC) and side scatter (SSC), with the viable cells determined by their ability to exclude PI. For analysis purposes, all data was standardised relative to control (normal cell % ranged from approx. 0-7%).
as §1, §2
(§5) The percentage of PI^+ cells was then determined by flow cytometry.
as §3

[7] = test system: U937 cells; assay: PI uptake permeabilisation assay in the presence of serum; type: cell-based, human; details: for PI+ U937 cells: 10 μM defensin; for activity on tumour cells in the presence of serum: up to 40% serum
Experimental: as §4, §5
To assess the ability of PhD1A or rTPP3 to permeabilise tumour cells in the presence of serum, the PI-uptake flow cytometry assay was utilised as described in Example 2 with the following modifications: 4×10^5/mL U937 cells were incubated with […] PhD1A or rTPP3 in the presence of increasing concentrations of foetal calf serum (FCS) (0 to 40%) for 60 min followed by addition of 2 μg/mL PI. The percentage of PI^+ cells was then determined by flow cytometry.

[8] = Acute oral toxicity (OECD Test Guideline 423); type: in vivo, C57BL/6 mice
Source text: This study was based on OECD Test Guideline 423 (OECD [Organisation for Economic Co-operation and Development]. 2001. Guideline 423: Acute Oral Toxicity—Acute Toxic Class Method. Paris: OECD).
Healthy female C57BL/6 mice derived from the same litter were obtained from either the Central Animal House at La Trobe University (Bundoora Campus) or from Monash Animal Services. The animals were identified by ear punch and kept three per cage during the study. The animals will be housed and maintained in groups of three in cages as per standard animal house conditions at La Trobe University.
On the day of dosing, the test mice were weighed and fasted for 4 h prior to dose administration. Just prior to dosing, the mice were reweighed. […] The protein solution was administered by oral gavage using a round-tipped canula needle. Feed was replaced 1 h after dosing. The mice received standard rodent diet and water ad libitum.
The mice were observed hourly for 4 h after dosing on day 1 and at least twice daily thereafter until scheduled killing on day 14. Signs of gross toxicity, adverse pharmacologic effects and behavioural changes were assessed and recorded daily as was the food and water consumption. The mice were reweighed at days 7 or 8 and 14. On the last day of the study (day 14), the mice were killed by inhalation of carbon dioxide and necropsied. All the mice received a gross pathological examination. The weights of the following organs were recorded: brain, heart, liver, lungs, kidneys, gastrointestinal tract, spleen and thymus. Subsequently, the samples were fixed in 4% (v/v) paraformaldehyde until paraffin embedding, sectioning and histopathological examination by the Australian Phenomics Network, University of Melbourne node. The gastrointestinal tract was divided into the following sections: stomach, duodenum, jejunum, ileum, cecum and colon.

[9] = Example 11, 30 min at 37° C., concentration printed 'at 100' (10 μM in the same block)
[10] = oral gavage, 20, 50 or 300 mg NaD1/kg body weight, 14 days

Row | Substance | IC50 [1] | IC50 [2] | phospholipid binding preference (PIP strips) [4] | release of ATP from U937 cells [5] | PI+ U937 cells [6, 9] | activity on tumour cells in the presence of serum [7] | PI+ U937 cells (mean ± SEM) [6] | further results
1 | ARECKTESNTFPGICITKPPCRKACISEKFTDGHCSKILRRCLCTKPC (disulfide 4-48, 15-35, 21-42, 25-44) [rNaD1] | ~1.6 µM | 7.5 to 12 µM | – | – | – | – | – | haemolytic activity [3]: no ability to lyse RBCs; haemolytic activity ([3]; listed as recombinant NaD1): no haemolytic activity
2 | NsD1: Nicotiana suaveolens class II defensin; mature domain SEQ ID NO: 22 (KDCKRESNTFPGICITKPPCRKACIREKFTDGHCSKILRRCLCTKPC; listed as Nicotiana suaveolens) | – | – | general preference of binding to phosphoinositides | release of ATP in a time-dependent and concentration-dependent manner | ~60% | – | – | –
3 | NsD2: Nicotiana suaveolens class II defensin; mature domain SEQ ID NO: 26 (KDCKRESNTFPGICITKLPCRRACISEKFADGHCSKILRRCLCTKPC; listed as Nicotiana suaveolens) | – | – | general preference of binding to phosphoinositides | release of ATP in a time-dependent and concentration-dependent manner | ~60% | – | – | –
4 | PhD1A: Petunia hybrida Class II defensin; mature domain SEQ ID NO: 18 (ATCKAECPTWDGICINKGPCVKCCKAQPEKFTDGHCSKVLRRCLCTKPC; listed as Petunia hybrida) | – | – | general preference of binding to phosphoinositides | release of ATP in a time-dependent and concentration-dependent manner | – | retained the ability to permeabilise U937 cells | 57.07±2.76% | PI+ U937 cells ([7]; 0% FCS): 90%; PI+ U937 cells ([7]; 40% FCS): 40%; binding to phosphatidic acid (PA) [4]: bound strongly; PI+ U937 cells ([6]; 6.25 μM, 30 min, 37° C.): ~35%; PI+ U937 cells ([6]; 50 μM, 30 min, 37° C.): ~90%
5 | RECKTESNTFPGICITKPPCRKACISEKFTDGHCSKILRRCLCTKPC (disulfide 3-47, 14-34, 20-41, 24-43) [NaD1] | ~1 µM | 7.5 to 12 µM | – | – | – | – | – | adverse effects on mice ([8]; administered orally at up to 300 mg NaD1/kg body weight): no adverse effects; histopathology of organs ([8]; highest dose of 300 mg NaD1/kg body weight): possible slight irritation to the stomach epithelium; body weight [8, 10]: no treatment related effects on body weight; clinical signs [8, 10]: no signs of gross toxicity, adverse pharmacologic effects or behavioural changes; survival [8, 10]: survived to termination of the study; histopathology of organs ([8]; oral gavage, doses below 300 mg NaD1/kg body weight): No pathologies, attributable to protein administration; RBC lysis (relative to water = 100% lysis) ([3]; 100 μM, 16 h, 37° C.): ~50%
6 | rTPP3: Solanum lycopersicum (tomato) Class II defensin TPP3, recombinant (SEQ ID NO: 12) (AQQICKAPSQTFPGLCFMDSSCRKYCIKEKFTGGHCSKLQRKCLCTKPC; listed as Solanum lycopersicum) | – | – | general preference of binding to phosphoinositides | release of ATP in a time-dependent and concentration-dependent manner | – | retained the ability to permeabilise U937 cells | 49.97±2.93% | retention of permeabilisation activity ([7]; 5-40% FCS): up to 70%; PI+ U937 cells ([6]; 5 μM, 30 min, 37° C.): ~35%; PI+ U937 cells ([6]; 40 μM, 30 min, 37° C.): ~90%

From US20120172313A1, “TREATMENT OF PROLIFERATIVE DISEASES” (priority 2010, published 2012)
